Test results as given in patent US20180008587A1, “THIOHYDANTOIN ANDROGEN RECEPTOR ANTAGONISTS FOR THE TREATMENT OF CANCER” (Jaressen Pharmaceutica NV, priority 2016, published 2018).
Numbering of substitutions follows the chain as printed. Where two headings read alike, the source gives them in different places.

How the values were obtained:
Type in all cases: cell-based
[1] = target: T1, wild-type Androgen Receptor (AR-wt) (Homo sapiens, UniProt P10275); assay: LNCaP-AR-wt AG reporter assay (ARE firefly luciferase, agonist mode); conditions: for Emax: read-out: LNCaP-AR-wt AG MAX % Stim
T1 construct: expressed in transfected cells; host or cells: LNCaP (LNCaP AR (cs))
T1 sequence (P10275 1-920): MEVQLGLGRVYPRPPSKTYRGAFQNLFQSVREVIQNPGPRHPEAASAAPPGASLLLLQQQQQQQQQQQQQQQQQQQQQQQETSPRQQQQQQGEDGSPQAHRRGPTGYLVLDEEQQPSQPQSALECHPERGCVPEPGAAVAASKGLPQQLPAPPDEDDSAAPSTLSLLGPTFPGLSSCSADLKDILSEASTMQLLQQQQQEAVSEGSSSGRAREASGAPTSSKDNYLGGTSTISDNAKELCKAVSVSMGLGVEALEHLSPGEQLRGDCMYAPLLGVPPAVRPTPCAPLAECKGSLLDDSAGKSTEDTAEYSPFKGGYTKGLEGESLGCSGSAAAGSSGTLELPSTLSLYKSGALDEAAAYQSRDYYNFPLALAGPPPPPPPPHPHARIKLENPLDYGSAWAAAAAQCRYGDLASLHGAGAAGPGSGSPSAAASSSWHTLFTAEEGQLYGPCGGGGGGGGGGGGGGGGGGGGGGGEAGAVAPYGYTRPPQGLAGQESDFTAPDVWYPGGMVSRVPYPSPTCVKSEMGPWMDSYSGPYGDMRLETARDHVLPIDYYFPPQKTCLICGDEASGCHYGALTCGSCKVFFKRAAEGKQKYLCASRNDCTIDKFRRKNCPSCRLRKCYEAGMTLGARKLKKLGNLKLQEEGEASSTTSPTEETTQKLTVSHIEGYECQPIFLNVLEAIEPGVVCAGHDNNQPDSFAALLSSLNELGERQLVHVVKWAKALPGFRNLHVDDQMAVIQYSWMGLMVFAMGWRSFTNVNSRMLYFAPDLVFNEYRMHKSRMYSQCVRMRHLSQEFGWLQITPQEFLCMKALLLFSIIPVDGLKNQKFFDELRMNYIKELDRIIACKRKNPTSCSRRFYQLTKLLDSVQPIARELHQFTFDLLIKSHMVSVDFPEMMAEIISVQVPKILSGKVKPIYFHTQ
Experimental: (§1) A stable pooled-population cell line was generated using puromycin (Life Technologies) selection at 1:10,000 v/v. The protocol below was used for both cell lines and for testing of the compounds of Formula (I) of the present invention.
(§2) LNCaP cells were grown to about 80% confluence, media removed and cells rinsed in Hank's balanced salt solution prior to separation from the plate with 0.05% Trypsin EDTA. Cells were lifted and trypsin negated in complete CSS (charcoal stripped serum) culture media. […] Agonist challenge was at 400 pM for WT assay and 600 pM for F876L assay. Plates containing cells and compounds herein were incubated for a further 20-24 hours at 37° C., 5% CO2 before addition of 40 μL/well of Steady-Glo Luciferase Assay System Reagent (Promega# E2520). After 1 h, plates were read for luminescence on a BMG Pherastar.
(§3) EC/IC50 calculations were achieved utilizing calculated RLU data and data fitting macros. Data were fit using least-squares methods to the following formula: […]

[2] = target: T1, wild-type Androgen Receptor (AR-wt); assay: LNCaP-AR-wt ANT reporter assay (ARE firefly luciferase, antagonist mode); conditions: for IC50: antagonist mode, 400 pM R-1881 challenge, −Log10(IC50 [Molar]), read-out: LNCaP-AR-wt ANT pIC50 (converted); for Emax: read-out: LNCaP-AR-wt ANT MAX % Inh
Experimental: as §1, §2, §3

[3] = target: T2, F876L mutant Androgen Receptor (AR-F876L) (Homo sapiens, UniProt P10275, F877L); assay: LNCaP-AR-F876L ANT reporter assay (ARE firefly luciferase, antagonist mode); conditions: for Emax: read-out: LNCaP-AR-F876L ANT MAX % Inh; for IC50: read-out: LNCaP-AR-F876L ANT pIC50 (converted)
T2 construct: expressed in transfected cells; host or cells: LNCaP (LNCaP F876L)
T2 sequence (P10275 1-920 F877L): T1 sequence (P10275 1-920) with F877L
Experimental: as §1, §2, §3

[4] = target: T2, F876L mutant Androgen Receptor (AR-F876L); assay: LNCaP-AR-F876L AG reporter assay (ARE firefly luciferase, agonist mode); conditions: for Emax: read-out: LNCaP-AR-F876L AG MAX % Stim
Experimental: as §1, §2, §3

[5] = agonist mode, −Log10(EC50 [Molar]), read-out: LNCaP-AR-wt AG pEC50 (converted)
[6] = maximum % stimulation (agonist response) over tested concentration range
[7] = maximum % inhibition of R1881 control response over tested concentration range
[8] = agonist mode, −Log10(EC50 [Molar]), read-out: LNCaP-AR-F876L AG pEC50 (converted)

Row | Structure (SMILES) | EC50 [1, 5] [nM] | Emax [1, 6] [%] | IC50 [2] [nM] | Emax [2, 7] [%] | Emax [3, 7] [%] | IC50 [3] [nM] | EC50 [4, 8] [nM] | Emax [4, 6] [%] | EC50 [1] [nM] | Emax [1] [%] | Emax [2] [%] | Emax [3] [%] | EC50 [4] [nM] | Emax [4] [%]
1 | Cc1cc(N2C(=O)C3(CCC3)N(c3ccc(-c4cccnc4C)cc3)C2=S)cnc1C#N [Cpd 119, 3-methyl-5-[8-[4-(2-methyl-3-pyridyl)phenyl]-5-oxo-7-thioxo-6,8-diazaspiro[3.4]octan-6-yl]pyridine-2-carbonitrile] | > 15100 | 2.2 | 112 | 97.7 | 96 | 158 | > 15100 | 3.9 | – | – | – | – | – | –
2 | Cc1cc(N2C(=O)C3(CCC3)N(c3ccc(C4CCOCC4)cc3)C2=S)cnc1C#N [Cpd 101, 3-methyl-5-[5-oxo-8-(4-tetrahydropyran-4-ylphenyl)-7-thioxo-6,8-diazaspiro[3.4]octan-6-yl]pyridine-2-carbonitrile] | – | – | 479 | – | – | 363 | – | – | > 15100 | 1.1 | 99.4 | 95.3 | > 15100 | 1.7
3 | N#Cc1ncc(N2C(=O)C3(CCC3)N(c3ccc(O)cc3F)C2=S)cc1C(F)(F)F [Cpd 47, 5-[8-(2-fluoro-4-hydroxy-phenyl)-5-oxo-7-thioxo-6,8-diazaspiro[3.4]octan-6-yl]-3-(trifluoromethyl)pyridine-2-carbonitrile] | > 15100 | – | 245 | 101 | 99.6 | 195 | > 15100 | – | – | 0.9 | – | – | – | 0.4
4 | N#Cc1ncc(N2C(=O)C3(CCC3)N(c3cccc(F)c3F)C2=S)cc1C(F)(F)F [Cpd 106, 5-[8-(2,3-difluorophenyl)-5-oxo-7-thioxo-6,8-diazaspiro[3.4]octan-6-yl]-3-(trifluoromethyl)pyridine-2-carbonitrile] | > 15100 | 1.8 | 617 | 101 | 95.9 | 631 | > 15100 | 2.4 | – | – | – | – | – | –
5 | CNS(=O)(=O)c1ccc(N2C(=S)N(c3cnc(C#N)c(C(F)(F)F)c3)C(=O)C23CCC3)cc1 [Cpd 25, 4-[6-[6-cyano-5-(trifluoromethyl)-3-pyridyl]-5-oxo-7-thioxo-6,8-diazaspiro[3.4]octan-8-yl]-N-methyl-benzenesulfonamide] | > 15100 | 1.5 | 1000 | 98 | 99.7 | 525 | > 15100 | 0.2 | – | – | – | – | – | –
6 | COc1ccc(N2C(=S)N(c3cnc(C#N)c(C)c3)C(=O)C23CCC3)cc1 [Cpd 69, 5-[8-(4-methoxyphenyl)-5-oxo-7-thioxo-6,8-diazaspiro[3.4]octan-6-yl]-3-methyl-pyridine-2-carbonitrile] | > 15100 | 0.9 | 282 | 102 | 99.1 | 132 | > 15100 | 0.7 | – | – | – | – | – | –
7 | CNC(=O)c1ccc(N2C(=S)N(c3cnc(C#N)c(C)c3)C(=O)C23CCC3)cc1C [Cpd 5, 4-[6-(6-cyano-5-methyl-3-pyridyl)-5-oxo-7-thioxo-6,8-diazaspiro[3.4]octan-8-yl]-N,2-dimethyl-benzamide] | > 15100 | 0.7 | 977 | 101 | 98.3 | 417 | > 15100 | -0.1 | – | – | – | – | – | –
8 | Cc1cc(N2C(=O)C3(CCC3)N(c3ccc(OC4CCN(C)CC4)c(F)c3)C2=S)cnc1C#N [Cpd 116, 5-[8-[3-fluoro-4-[(1-methyl-4-piperidyl)oxy]phenyl]-5-oxo-7-thioxo-6,8-diazaspiro[3.4]octan-6-yl]-3-methyl-pyridine-2-carbonitrile] | > 15100 | 1.1 | 2570 | 95.3 | 98.6 | 631 | > 15100 | 3.5 | – | – | – | – | – | –
9 | CN1CCN(CCNC(=O)c2ccc(N3C(=S)N(c4cnc(C#N)c(C(F)(F)F)c4)C(=O)C34CCC4)cc2F)CC1 [Cpd 121, 4-[6-[6-cyano-5-(trifluoromethyl)-3-pyridyl]-5-oxo-7-thioxo-6,8-diazaspiro[3.4]octan-8-yl]-2-fluoro-N-[2-(4-methylpiperazin-1-yl)ethyl]benzamide] | > 15100 | 1.2 | 2750 | 93.6 | 98.7 | 575 | > 15100 | 3 | – | – | – | – | – | –
10 | Cc1cc(N2C(=O)C3(CCC3)N(c3ccc(OC4CCOCC4)cc3)C2=S)cnc1C#N [Cpd 87, 3-methyl-5-[5-oxo-8-(4-tetrahydropyran-4-yloxyphenyl)-7-thioxo-6,8-diazaspiro[3.4]octan-6-yl]pyridine-2-carbonitrile] | – | – | – | – | – | 288 | – | – | > 15100 | 1.1 | – | 99.7 | > 15100 | 0.9
11 | N#Cc1ncc(N2C(=O)C3(CCC3)N(c3ccc(C(=O)NCCc4ccccc4)c(F)c3)C2=S)cc1C(F)(F)F [Cpd 42, 4-[6-[6-cyano-5-(trifluoromethyl)-3-pyridyl]-5-oxo-7-thioxo-6,8-diazaspiro[3.4]octan-8-yl]-2-fluoro-N-phenethyl-benzamide] | > 15100 | 0.3 | 245 | 100 | – | – | > 15100 | 0 | – | – | – | – | – | –
